Values quoted from earlier work in patent US20080293821A1, “Cooling compositions” (priority 2007, published 2008).

biological target: T1, recombinant cold-menthol receptor TRPM8 (mTRPM8) (Mus musculus, UniProt Q8R4D5); details: mTRPM8 expressed in HEK293 cells, FLIPR; British Journal of Pharmacology 141, 737-745 (2004)
T1 construct: host or cells: HEK293 cells (recombinant expression)
T1 sequence (Q8R4D5 whole entry): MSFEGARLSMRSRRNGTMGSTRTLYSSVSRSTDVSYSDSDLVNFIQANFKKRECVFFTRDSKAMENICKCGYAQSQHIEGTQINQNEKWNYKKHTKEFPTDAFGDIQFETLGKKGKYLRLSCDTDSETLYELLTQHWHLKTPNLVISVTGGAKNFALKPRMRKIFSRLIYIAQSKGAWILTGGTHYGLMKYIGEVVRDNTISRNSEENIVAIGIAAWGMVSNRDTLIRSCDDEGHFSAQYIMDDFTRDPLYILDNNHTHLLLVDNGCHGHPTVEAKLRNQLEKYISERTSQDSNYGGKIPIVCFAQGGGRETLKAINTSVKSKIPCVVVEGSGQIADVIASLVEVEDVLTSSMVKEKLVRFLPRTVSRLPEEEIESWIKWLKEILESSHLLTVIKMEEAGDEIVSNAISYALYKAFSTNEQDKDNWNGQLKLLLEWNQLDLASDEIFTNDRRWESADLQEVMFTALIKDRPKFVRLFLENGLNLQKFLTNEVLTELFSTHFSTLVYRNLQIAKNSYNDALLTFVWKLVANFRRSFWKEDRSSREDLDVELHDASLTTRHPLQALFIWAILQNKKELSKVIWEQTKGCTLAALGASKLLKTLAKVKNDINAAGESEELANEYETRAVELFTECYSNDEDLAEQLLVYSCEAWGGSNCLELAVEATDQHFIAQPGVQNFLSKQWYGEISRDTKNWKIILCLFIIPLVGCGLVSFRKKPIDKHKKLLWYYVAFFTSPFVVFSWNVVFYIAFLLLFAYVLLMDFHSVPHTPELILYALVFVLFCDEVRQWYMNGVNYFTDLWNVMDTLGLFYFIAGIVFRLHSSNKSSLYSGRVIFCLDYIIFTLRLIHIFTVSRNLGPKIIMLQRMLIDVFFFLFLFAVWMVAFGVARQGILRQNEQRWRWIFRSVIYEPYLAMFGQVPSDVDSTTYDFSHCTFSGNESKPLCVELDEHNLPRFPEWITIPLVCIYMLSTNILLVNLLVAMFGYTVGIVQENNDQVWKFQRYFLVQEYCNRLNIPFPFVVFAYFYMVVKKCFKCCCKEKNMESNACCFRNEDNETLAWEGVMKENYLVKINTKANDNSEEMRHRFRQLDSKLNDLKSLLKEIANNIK

SMILES	agonist activity on TRPM8
C=C(C)[C@@H]1CC[C@@H](C)C[C@H]1O [Coolact P]	agonists
CC1CCC(C(C)C)C(OCC(O)CO)C1 (stereo not shown) [Cooling Agent 10]	agonists
CC(C)=CCC/C(C)=C/CO [geraniol]	agonists
C=CC(C)(O)CCC=C(C)C (stereo not shown) [linalool]	agonists
CC1CCC(C(C)C)C2(C1)OCC(CO)O2 (stereo not shown) [Frescolat MGA, 6-isopropyl-9-methyl-1,4-dioxaspiro-(4,5)-decane-2-methanol]	agonists
CC1CCC(C(C)C)C(OC(=O)C(C)O)C1 (stereo not shown) [Frescolat ML, menthyl lactate]	agonists
CC(CC=O)CCCC(C)(C)O (stereo not shown) [hydroxycitronellal]	agonists

The remaining lines, values ahead:

agonist activity on TRPM8	SMILES
agonists	C[C@@H]1CC[C@@H](C(C)(C)O)[C@H](O)C1 [PMD38]
agonists	CNC(=O)C(C)(C(C)C)C(C)C [WS-23, 2-Isopropyl-N,2,3-trimethylbutyramide]
agonists	CCNC(=O)C1CC(C)CCC1C(C)C (stereo not shown) [WS-3, N-Ethyl-p-menthane-3-carboxamide]
